These compounds were tested against T1, human CRF receptors (Homo sapiens, UniProt P34998) (assay: standard radioligand binding assay: displacement of radiolabeled CRF ligand from the CRF receptor). Settings: Table 7 title: Ki ≤ 250 nM; cells stably transfected with human CRF receptors; [125I]tyrosine-ovine CRF ~200 pM; 2 hours at 22° C.
T1 construct: expressed in transfected cells
T1 sequence (P34998 24-415): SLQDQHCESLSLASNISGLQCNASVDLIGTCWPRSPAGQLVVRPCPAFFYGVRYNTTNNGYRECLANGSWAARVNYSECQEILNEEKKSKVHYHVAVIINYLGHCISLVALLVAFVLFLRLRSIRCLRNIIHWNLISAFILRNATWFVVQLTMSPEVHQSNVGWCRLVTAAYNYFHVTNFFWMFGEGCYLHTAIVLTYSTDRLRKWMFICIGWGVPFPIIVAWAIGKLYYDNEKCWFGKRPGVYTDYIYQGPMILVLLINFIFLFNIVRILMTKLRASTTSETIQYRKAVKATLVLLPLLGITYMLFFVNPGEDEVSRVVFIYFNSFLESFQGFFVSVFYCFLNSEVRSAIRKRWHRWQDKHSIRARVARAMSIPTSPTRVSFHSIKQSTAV
Source text: The effectiveness of a compound as a CRF receptor antagonist may be determined by various assay methods. Suitable CRF antagonists of this invention are capable of inhibiting the specific binding of CRF to its receptor and antagonizing activities associated with CRF. A compound of structures I through VI may be assessed for activity as a CRF antagonist by one or more generally accepted assays for this purpose, including (but not limited to) the assays disclosed by DeSouza et al. (J. Neuroscience 7:88, 1987) and Battaglia et al. (Synapse 1:572, 1987). […] CRF receptor affinity may be determined by binding studies that measure the ability of a compound to inhibit the binding of a radiolabeled CRF (e.g., [^125 I]tyrosine-CFR) to its receptor (e.g. receptors prepared from rat cerebral cortex membranes). The radioligand binding assay described by DeSouza et al. (supra, 1987) provides an assay for determining a compound's affinity for the CRF receptor. Such activity is typically calculated from the IC50 as the concentration of a compound necessary to displace 50% of the radiolabeled ligand from the receptor, and is reported as a "Ki " value calculated by the following equation: [formula] where L=radioligand and KD =affinity of radioligand for receptor (Cheng and Prusoff, Biochem. Pharmacol. 22:3099, 1973).
Compounds were evaluated for binding activity to the CRF receptor by a standard radioligand binding assay as generally described by DeSouza et al. (J. Neurosci. 7:88-100, 1987). By utilizing various radiolabeled CRF ligands, the assay may be used to evaluate the binding activity of the compounds of the present invention with any CRF receptor subtype. Briefly, the binding assay involves the displacement of a radiolabeled CRF ligand from the CRF receptor.
More specifically, the binding assay was performed in 1.5 ml Eppendorf tubes using approximately 1×10^6 cells per tube stably transfected with human CRF receptors. Each tube received about 0.1 ml of assay buffer (e.g., Dulbecco's phosphate buffered saline, 10 mM magnesium chloride, 20 μM bacitracin) with or without unlabeled sauvagine, urotensin I or CRF (final concentration, 1 μM) to determine nonspecific binding, 0.1 ml of [^125 ] tyrosine--ovine CRF (final concentration ~200 pM or approximately the KD as determined by Scatchard analysis) and 0.1 ml of a membrane suspension of cells containing the CRF receptor. The mixture was incubated for 2 hours at 22° C. followed by the separation of the bound and free radioligand by centrifugation. Following two washes of the pellets, the tubes were cut just above the pellet and monitored in a gamma counter for radioactivity at approximately 80% efficiency. All radioligand binding data was analyzed using the non-linear least-square curve-fitting program LIGAND of Munson and Rodbard (Anal. Biochem. 107:220, […]).
Binding activity corresponds to the concentration (nM) of the compound necessary to displace 50% of the radiolabeled ligand from the receptor.

Ki, ≤ 0.25 µM:
CCCN(c1nccc(-c2c(OC)cc(Cl)cc2OC)n1)C(C1CC1)C1CC1 [II-35]
CCCN(c1ncc(C)c(-c2ccc(OC)cc2OC)n1)C(C1CC1)C1CC1 [II-39]
CCCN(c1nccc(-c2c(OC)cc(OC)cc2OC)n1)C(C1CC1)C1CC1 [II-22, 2-(N-dicyclopropylmethyl-N-propylamino)-4-(2',4',6'-trimethoxyphenyl)pyrimidine]
CCCN(c1nc(N)nc(-c2c(Cl)cc(Cl)cc2Cl)n1)C(C1CC1)C1CC1 [IV-2, 2-(2',4',6'-trichlorophenyl)-4-(N-dicyclopropylmethyl-N-propylamino)-6-aminotriazine]
CCCN(c1ncc(C)c(-c2ccc(Br)cc2)n1)C(C1CC1)C1CC1 [II-16, 2-(N-dicyclopropylmethyl-N-propylamino)-4-(4'-bromophenyl)-5-methylpyrimidine]
CCCN(c1nccc(-c2ccc(OC)cc2C)n1)C(C1CC1)C1CC1 [II-43]
CCCN(c1ncc(C)c(-c2c(OC)cc(OC)cc2OC)n1)C(C1CC1)C1CC1 [II-25]
CCCN(c1ncc(C)c(-c2ccc(Cl)cc2)n1)C(C1CC1)C1CC1 [II-7]
CCCN(c1ncc(C)c(-c2ccc(Cl)cc2OC)n1)C(C1CC1)C1CC1 [II-32]
CCCN(c1nc(N)nc(-c2ccc(Cl)cc2Cl)n1)C(C1CC1)C1CC1 [IV-7]
CCCN(c1nccc(-c2c(Cl)cc(Cl)cc2Cl)n1)C(C1CC1)C1CC1 [II-11, 2-(N-dicyclopropylmethyl-N-propylamino)-4-(2',4',6'-trichlorophenyl)-pyrimidine]
CCCN(c1nccc(-c2c(C)cc(C)cc2C)n1)C(C1CC1)C1CC1 [II-24]
CCCN(c1ncnc(-c2ccc(Cl)cc2Cl)n1)C(C1CC1)C1CC1 [IV-8, 2-(N-dicyclopropylmethyl-N-propylamino)-4-(2',4'-dichlorophenyl)triazine]
CCCN(c1nccc(-c2c(OC)cccc2OC)n1)C(C1CC1)C1CC1 [II-23, 2-(N-dicyclopropylmethyl-N-propyl)-4-(2',6'-dimethoxyphenyl)pyrimidine]

Reference: patent US5795905A, “CRF receptor antagonists and methods relating thereto” (Neurocrine Biosciences, Inc., priority 1995, dated 1998)
